Test results as given in article PMC12444472, “BCI inhibits MKP3 by targeting the kinase-binding domain and disrupting ERK2 interaction” (The Journal of Biological Chemistry, 2025).

Assays:
MKP3^KBD = target: T1, MKP3^KBD (Homo sapiens, UniProt Q16828); assay: NMR titration (1H-15N HSQC); assay type: binding; settings: 15N-labeled MKP3^KBD titrated with BCI, analysed at 1:4 M ratio
T1 construct: MKP3(1–154) (MKP3^KBD); made in house; host or cells: Escherichia coli BL21(DE3)
T1 sequence (Q16828 1-154): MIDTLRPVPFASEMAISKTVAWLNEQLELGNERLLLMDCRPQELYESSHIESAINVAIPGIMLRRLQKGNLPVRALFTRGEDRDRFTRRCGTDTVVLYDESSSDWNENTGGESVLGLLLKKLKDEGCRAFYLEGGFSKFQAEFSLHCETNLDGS
Experimental: NMR data were collected at 298 K on a Bruker AVANCE NEO 800 MHz spectrometer (Bruker BioSpin) equipped with a ^1H&^19F/^13C/^15N TCI cryogenic probe. Backbone resonances of MKP3^1–154 were assigned using 2D/3D experiments, including 2D ^1H–^15N HSQC and 3D ^1H/^13C/^15N CBCA(CO)NH, HNCACB, HNCO, and HN(CA)CO, performed with uniformly ^13C/^15N labeled protein at a final concentration of 0.39 mM in buffer containing 20 mM imidazole (pH 6.0), 100 mM NaCl, 5 mM DTT, 0.5 mM EDTA, and 5% (v/v) D2O. The buffer used for backbone resonance assignment was similar to that used for the previously reported NMR structure ([15]). NMR titration experiments were conducted using ^15N-labeled MKP3^1–154, MKP3^14–152, MKP3^204–350, MKP1^1–141, MKP2^5–159, MKPX^1–140, MKP4^1–143, and MKP5^139–287. 2D ^1H–^15N HSQC spectra of ^15N-labeled MKPs^KBD (0.1 mM) were acquired in the absence and presence of BCI (50 mM stock in DMSO-d6) in buffer containing 50 mM KH2PO4–K2HPO4 (pH 7.2), 100 mM KCl, 1 mM Tris(2-carboxyethyl)phosphine hydrochloride, 1 mM EDTA, and 5% (v/v) D2O. Control experiments, in which only the corresponding volume of DMSO-d6 was added to ^15N-labeled proteins, were performed to exclude possible effects of DMSO on the interactions. For ^15N T1 measurements, the relaxation delay times were set to 20 (×2), 100, 200 (×2), 300, 400, 600 (×2), 800, 1200, and 1600 ms. For ^15N T2 measurements, the delay times were 7.84, 15.68 (×2), 23.52, 31.36 (×2), 39.2, 47.04 (×2), 54.88, 62.72, 78.4, 94.08, and 109.76 ms. The relaxation rates R1 (1/T1) and R2 (1/T2) for each residue were determined by fitting the peak intensities from spectra acquired at the various delay times to a single-exponential decay function: I/I0 = exp(-R1,2·t), where I0 is the intensity at t = 0, and I is the intensity at a delay time t. Repeated measurements were used to estimate the uncertainties of the R1 and R2 values via Monte Carlo analysis. Heteronuclear steady-state ^1H–^15N NOE experiments were acquired in an interleaved mode, with 5 s of ^1H saturation for NOE build-up and 5 s of relaxation delay for the reference spectra. Repeated experiments were performed to estimate uncertainties, and the propagated error for each NOE value was calculated using the following equation: σNOE = NOE × ((σsat/Isat)^2+(σunsat/Iunsat)^2)^1/2, where σsat and σunsat are the SDs of the saturated and unsaturated spectra, respectively, and Isat and Iunsat are the corresponding signal intensities. NMR data were processed using TopSpin 4.1.1 (Bruker BioSpin) or NMRPipe ([54]) and analyzed with POKY ([55]).

MKP3 T87G = target: T2, MKP3 T87G (Homo sapiens, UniProt Q16828, T87G); assay: MST affinity of MKP3 mutant; assay type: binding; settings: full-length mutant
T2 construct: MKP3(1–381) (MKP3^FL); made in house; host or cells: Escherichia coli BL21(DE3)
T2 sequence (Q16828 1-381 T87G): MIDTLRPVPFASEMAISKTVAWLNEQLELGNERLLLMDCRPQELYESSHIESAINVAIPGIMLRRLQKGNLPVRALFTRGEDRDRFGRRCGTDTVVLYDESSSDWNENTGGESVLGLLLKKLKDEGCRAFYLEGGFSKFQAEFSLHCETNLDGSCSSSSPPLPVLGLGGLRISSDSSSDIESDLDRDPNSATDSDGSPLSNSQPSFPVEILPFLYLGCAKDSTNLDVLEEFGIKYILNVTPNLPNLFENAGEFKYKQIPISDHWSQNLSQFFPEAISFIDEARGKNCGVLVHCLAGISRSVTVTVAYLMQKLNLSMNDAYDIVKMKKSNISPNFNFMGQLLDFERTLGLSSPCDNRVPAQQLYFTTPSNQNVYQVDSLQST
Experimental: MST measurements were performed using fluorescently labeled proteins and the inhibitor BCI (CAS: 1245792-51-1; TargetMol) on a Monolith instrument (NanoTemper Technologies). The RED–Tris–NTA second-generation dye was dissolved in MST buffer (20 mM Hepes, pH 7.4, 200 mM NaCl, and 0.05% Tween-20) to prepare a 5 μM stock solution. Fluorescent labeling of MKP proteins followed the standard protocol of the MO-L018 RED–Tris–NTA protein labeling kit, leveraging the His-tag–dye interaction.
The BCI compound was prepared as a 600 to 750 μM stock solution in MST buffer with 10% DMSO to enhance solubility, followed by a 16-point serial dilution. The diluted BCI solutions were thoroughly mixed with labeled MKP proteins (50 nM) at a 1:1 volume ratio, yielding a final volume of 10 μl. The reaction mixtures were incubated in the dark for 10 min at room temperature before being loaded into standard glass capillaries. Measurements were carried out on the Monolith instrument (100% LED, 40% IR laser power) with a 20 s laser on time. The normalized fluorescence values from triplicate measurements were averaged at each concentration and fitted to a 1:1 binding model using the KD model in MO.Affinity software (v3.0.5, NanoTemper Technologies) to determine the binding affinities between MKP proteins and the BCI inhibitor. The final reported Kd value represents the mean ± SD of Kd values obtained from three independent experiments, each fitted separately.
Figure S3. Affinity measurements of MKP3 mutants with BCI by MST. The binding affinities of full-length MKP3 mutants (E81G, R83G, R85G, R87G, and R89A) to BCI were determined by MST and are presented as mean ± SD (n = 3). Wild-type MKP3 (MKP3^WT) was included as a reference.

[1] = target: T3, MKP3^KBD and ERK2 complex (Homo sapiens, UniProt Q16828); assay: NMR competitive binding titration of ERK2 and BCI; settings: excess BCI added to MKP3^KBD and ERK2 complex
T3 construct: spectra of ^15N-MKP3^1–154 in the presence of ERK2; made in house; host or cells: Escherichia coli BL21(DE3)
T3 sequence (Q16828 1-154): T1 sequence (Q16828 1-154)
Experimental: NMR data were collected at 298 K on a Bruker AVANCE NEO 800 MHz spectrometer (Bruker BioSpin) equipped with a ^1H&^19F/^13C/^15N TCI cryogenic probe. Backbone resonances of MKP3^1–154 were assigned using 2D/3D experiments, including 2D ^1H–^15N HSQC and 3D ^1H/^13C/^15N CBCA(CO)NH, HNCACB, HNCO, and HN(CA)CO, performed with uniformly ^13C/^15N labeled protein at a final concentration of 0.39 mM in buffer containing 20 mM imidazole (pH 6.0), 100 mM NaCl, 5 mM DTT, 0.5 mM EDTA, and 5% (v/v) D2O. The buffer used for backbone resonance assignment was similar to that used for the previously reported NMR structure ([15]). […] The relaxation rates R1 (1/T1) and R2 (1/T2) for each residue were determined by fitting the peak intensities from spectra acquired at the various delay times to a single-exponential decay function: I/I0 = exp(-R1,2·t), where I0 is the intensity at t = 0, and I is the intensity at a delay time t. […] Repeated experiments were performed to estimate uncertainties, and the propagated error for each NOE value was calculated using the following equation: σNOE = NOE × ((σsat/Isat)^2+(σunsat/Iunsat)^2)^1/2, where σsat and σunsat are the SDs of the saturated and unsaturated spectra, respectively, and Isat and Iunsat are the corresponding signal intensities. NMR data were processed using TopSpin 4.1.1 (Bruker BioSpin) or NMRPipe ([54]) and analyzed with POKY ([55]).

## O=C1/C(=C/c2ccccc2)C(NC2CCCCC2)c2ccccc21 (stereo not drawn) [BCI, (E)-2-benzylidene-3-(cyclohexylamino)-2,3-dihydro-1H-inden-1-one]
MKP3^KBD
  perturbation of NMR spectrum: significant peak broadening
MKP3 T87G
  affinity for BCI compared with MKP3^WT: affinities similar to the WT
[1]
  effect on ERK2-bound MKP3^KBD spectrum: reversion of specific MKP3^KBD peaks to their ERK2-unbound state
